From patent US20200190073A1, “SUBSTITUTED SUCCINIMIDE DERIVATIVES AS PESTICIDES” (BASF SE, priority 2017, published 2020)

Experiments:
Assay type in all cases: in vivo
[1] = tested on: Green Peach Aphid (Myzus persicae); assay: B.2 Green peach aphid, artificial diet, systemic; conditions: 72 h, read-out: mortality in comparison with untreated controls
Source text: B.2 Green Peach Aphid (Myzus persicae)
For evaluating control of green peach aphid (Myzus persicae) through systemic means the test unit consisted of 96-well-microtiter plates containing liquid artificial diet under an artificial mem brane.
The compounds were formulated using a solution containing 75% v/v water and 25% v/v DMSO. Different concentrations of formulated compounds were pipetted into the aphid diet, using a custom built pipetter, at two replications.
After application, 5-8 adult aphids were placed on the artificial membrane inside the microtiter plate wells. The aphids were then allowed to suck on the treated aphid diet and incubated at about 23±1° C. and about 50±5% relative humidity for 3 days. Aphid mortality and fecundity was then visually assessed.

[2] = tested on: Orchid Thrips (Dichromothrips Corbetti); assay: B.7 Orchid thrips, floral immersion; conditions: Thrips, 72 h, read-out: mortality in comparison with untreated controls
Protocol: B.7 Orchid Thrips (Dichromothrips Corbetti)
Dichromothrips corbetti adults used for bioassay were obtained from a colony maintained continuously under laboratory conditions. For testing purposes, the test compound is diluted in a 1:1 mixture of acetone:water (vol:vol), plus Kinetic HV at a rate of 0.01% v/v.
Thrips potency of each compound was evaluated by using a floral-immersion technique. All petals of individual, intact orchid flowers were dipped into treatment solution and allowed to dry in Petri dishes. Treated petals were placed into individual re-sealable plastic along with about 20 adult thrips. All test arenas were held under continuous light and a temperature of about 28° C. for duration of the assay. After 3 days, the numbers of live thrips were counted on each petal. The percent mortality was recorded 72 hours after treatment.

[3] = tested on: Boll Weevil (Anthonomus grandis); assay: B.5 Boll weevil, insect diet with eggs; conditions: 120 h, read-out: mortality in comparison with untreated controls
Protocol: B.5 Boll Weevil (Anthonomus grandis)
For evaluating control of boll weevil (Anthonomus grandis) the test unit consisted of 96-well-microtiter plates containing an insect diet and 5-10 A. grandis eggs.
The compounds were formulated using a solution containing 75% v/v water and 25% v/v DMSO. Different concentrations of formulated compounds were sprayed onto the insect diet at 5 μl, using a custom built micro atomizer, at two replications.
After application, microtiter plates were incubated at about 25±1° C. and about 75±5% relative humidity for 5 days. Egg and larval mortality was then visually assessed.

[4] = tested on: Diamond back moth (Plutella xylostella); assay: B.1 Diamond back moth, cabbage leaf dip; conditions: foliar, 72 h, read-out: mortality in comparison with untreated controls
Protocol: B.1 Diamond back moth (Plutella xylostella)
The active compound was dissolved at the desired concentration in a mixture of 1:1 (vol:vol) distilled water:acetone. Surfactant (Kinetic HV) was added at a rate of 0.01% (vol/vol). The test solution was prepared at the day of use.
Leaves of cabbage were dipped in test solution and air-dried. Treated leaves were placed in petri dishes lined with moist filter paper and inoculated with ten 3rd instar larvae. Mortality was recorded 72 hours after treatment. Feeding damages were also recorded using a scale of 0-100%.

[5] = tested on: Tobacco Budworm (Heliothis virescens); assay: B.4 Tobacco budworm, insect diet with eggs; conditions: 120 h, read-out: mortality in comparison with untreated controls
Protocol: B.4 Tobacco Budworm (Heliothis virescens)
For evaluating control of tobacco budworm (Heliothis virescens) the test unit consisted of 96-well-microtiter plates containing an insect diet and 15-25 H. virescens eggs.
The compounds were formulated using a solution containing 75% v/v water and 25% v/v DMSO. Different concentrations of formulated compounds were sprayed onto the insect diet at 10 μl, using a custom built micro atomizer, at two replications.
After application, microtiter plates were incubated at about 28±1° C. and about 80±5% relative humidity for 5 days. Egg and larval mortality was then visually assessed.

[6] = tested on: Red Spider Mite (Tetranychus kanzawai); assay: B.9 Red spider mite, sprayed cowpea beans; conditions: 72 h, read-out: mortality in comparison with untreated controls
Protocol: B.9 Red Spider Mite (Tetranychus kanzawai)
The active compound was dissolved at the desired concentration in a mixture of 1:1 (vol:vol) distilled water:acetone. Add surfactant (Kinetic HV) was added at a rate of 0.01% (vol/vol).The test solution was prepared at the day of use.
Potted cowpea beans of 4-5 days of age were cleaned with tap water and sprayed with 1-2 ml of the test solution using air driven hand atomizer. The treated plants were allowed to air dry and afterwards inoculated with 30 or more mites by clipping a cassava leaf section from rearing population. Treated plants were placed inside a holding room at about 25-27° C. and about 50-60% relative humidity. Percent mortality was assessed 72 hours after treatment.

[7] = tested on: Green Soldier Stink Bug (Nezara viridula); assay: B.11 Green soldier stink bug, sprayed soybean pods; conditions: 120 h, read-out: mortality in comparison with untreated controls
Protocol: B.11 Green Soldier Stink Bug (Nezara viridula)
The active compound was dissolved at the desired concentration in a mixture of 1:1 (vol:vol) distilled water:acetone. Surfactant (Kinetic HV) was added at a rate of 0.01% (vol/vol). The test solution was prepared at the day of use. Soybean pods were placed in glass Petri dishes lined with moist filter paper and inoculated with ten late 3rd instar N. viridula. Using a hand atomizer, approximately 2 ml solution is sprayed into each Petri dish. Assay arenas were kept at about 25° C. Percent mortality was recorded after 5 days.

[8] = tested on: Vetch Aphid (Megoura viciae); assay: B.3 Vetch aphid, broad bean leaf disks; conditions: foliar, 120 h, read-out: mortality in comparison with untreated controls
Protocol: B.3 Vetch Aphid (Megoura viciae)
For evaluating control of vetch aphid (Megoura viciae) through contact or systemic means the test unit consisted of 24-well-microtiter plates containing broad bean leaf disks.
The compounds were formulated using a solution containing 75% v/v water and 25% v/v DMSO. Different concentrations of formulated compounds were sprayed onto the leaf disks at 2.5 μl, using a custom built micro atomizer, at two replications.
After application, the leaf disks were air-dried and 5-8 adult aphids placed on the leaf disks inside the microtiter plate wells. The aphids were then allowed to suck on the treated leaf disks and incubated at about 23±1° C. and about 50±5% relative humidity for 5 days. Aphid mortality and fecundity was then visually assessed.

[9] = tested on: Rice Green Leafhopper (Nephotettix virescens); assay: B.8 Rice green leafhopper, sprayed rice seedlings; conditions: 72 h, read-out: mortality in comparison with untreated controls
Protocol: B.8 Rice Green Leafhopper (Nephotettix virescens)
(§1) Rice seedlings were cleaned and washed 24 hours before spraying. The active compounds were formulated in 1:1 acetone:water (vol:vol), and 0.01% vol/vol surfactant (Kinetic HV) was added. Potted rice seedlings were sprayed with 5-6 ml test solution, air dried, covered with Mylar cages and inoculated with 10 adults. Treated rice plants were kept at about 28-29° C. and relative humidity of about 50-60%. Percent mortality was recorded after 72 hours.

[10] = tested on: Orchid Thrips (Dichromothrips Corbetti); assay: CE.3 Orchid thrips, comparative test; conditions: 96 h, read-out: % mortality in comparison to untreated controls
Protocol: (§2) The tables show % mortality in comparison to untreated controls.
CE.3 Orchid Thrips (Dichromothrips Corbetti)
Dichromothrips corbetti adults used for bioassay were obtained from a colony maintained continuously under laboratory conditions. For testing purposes, the test compound was diluted to a concentration of 300 ppm (wt compound: vol diluent) in a 1:1 mixture of acetone:water (vol:vol), plus 0.01% vol/vol Kinetic® surfactant.
Thrips potency of each compound was evaluated by using a floral-immersion technique. Plastic petri dishes were used as test arenas. All petals of individual, intact orchid flowers were dipped into treatment solution and allowed to dry. Treated flowers were placed into individual petri dishes along with 10-15 adult thrips. The petri dishes were then covered with lids. All test arenas were held under continuous light and a temperature of about 280C for duration of the assay. After 4 days, the numbers of live thrips were counted on each flower, and along inner walls of each petri dish. The level of thrips mortality was extrapolated from pre-treatment thrips numbers.

[11] = tested on: Rice Green Leafhopper (Nephotettix virescens); assay: CE.5 Rice green leafhopper, comparative test; conditions: 72 h, read-out: % mortality in comparison to untreated controls
Protocol: as §2
CE.5 Rice Green Leafhopper (Nephotettix virescens)
as §1, with “50:50” for “1:1”, “0.1%” for “0.01%”, “(EL 620)” for “(Kinetic HV)”, “5” for “5-6”, “placed in” for “covered with Mylar”

| Compound | mortality at 2500 ppm [1] [%] | mortality at 300 ppm [2] [%] | mortality at 2500 ppm [3] [%] | mortality at 300 ppm [4] [%] | mortality at 2500 ppm [5] [%] | mortality at 300 ppm [6] [%] | mortality at 300 ppm [7] [%] | mortality at 2500 ppm [8] [%] | mortality at 300 ppm [9] [%] | mortality at 10 ppm [10] [%] | mortality at 3 ppm [11] [%] |
| --- | --- | --- | --- | --- | --- | --- | --- | --- | --- | --- | --- |
| O=C(N[C@@H]1CC(=O)N(O)C1=O)c1ccc(C2=NOC(c3cc(Cl)c(F)c(Cl)c3)(C(F)(F)F)C2)cc1Cl (stereo partly drawn) [Compound I-1-33, 2-Chloro-4-[5-(3,5-dichloro-4-fluoro-phenyl)-5-(trifluoromethyl)-4H-isoxazol-3-yl]-N-[(3R)-1-hydroxy-2,5-dioxo-pyrrolidin-3-yl]benzamide] | > 75 | > 75 | > 75 | > 75 | > 75 |  |  |  |  |  |  |
| CNN1C(=O)C[C@@H](NC(=O)c2ccc(C3=NOC(c4cc(Cl)cc(Cl)c4)(C(F)(F)F)C3)cc2C)C1=O (stereo partly drawn) [Compound I-1-45, 4-[5-(3,5-Dichlorophenyl)-5-(trifluoromethyl)-4H-isoxazol-3-yl]-2-methyl-N-[(3R)-1-(methylamino)-2,5-dioxo-pyrrolidin-3-yl]benzamide] | > 75 | > 75 | > 75 | > 75 | > 75 | > 75 | > 75 | > 75 |  |  |  |
| CCN1C(=O)C[C@@H](NC(=O)c2ccc(C3=NOC(c4cc(Cl)c(F)c(Cl)c4)(C(F)(F)F)C3)cc2C)C1=O (some centres unmarked) [Compound I-1-50] | > 75 | > 75 | > 75 | > 75 | > 75 | > 75 | > 75 | > 75 | > 75 | 100 |  |
| CCN1C(=O)C[C@@H](NC(=O)c2ccc(C3=NOC(c4cc(Cl)cc(Cl)c4)(C(F)(F)F)C3)cc2C)C1=O (some centres unmarked) [Compound I-1-51] | > 75 | > 75 | > 75 | > 75 | > 75 | > 75 | > 75 | > 75 | > 75 | 100 | 90 |
| CON1C(=O)C[C@@H](NC(=O)c2ccc(C3=NOC(c4cc(Cl)cc(Cl)c4)(C(F)(F)F)C3)cc2C)C1=O (stereo partly drawn) [Compound I-1-55, 4-[5-(3,5-Dichlorophenyl)-5-(trifluoromethyl)-4H-isoxazol-3-yl]-N-[(3R)-1-methoxy-2,5-dioxo-pyrrolidin-3-yl]-2-methyl-benzamide] | > 75 | > 75 | > 75 | > 75 | > 75 | > 75 | > 75 | > 75 | > 75 |  |  |
| Cc1cc(C2=NOC(c3cc(Cl)c(F)c(Cl)c3)(C(F)(F)F)C2)ccc1C(=O)N[C@@H]1CC(=O)N(CC(F)(F)F)C1=O (some centres unmarked) [Compound I-1-57] | > 75 | > 75 | > 75 | > 75 | > 75 | > 75 |  | > 75 | > 75 | 100 |  |
| O=C(N[C@@H]1CC(=O)N(CC(F)(F)F)C1=O)c1ccc(C2=NOC(c3cc(Cl)c(F)c(Cl)c3)(C(F)(F)F)C2)cc1Cl (some centres unmarked) [Compound I-1-59] | > 75 | > 75 | > 75 | > 75 | > 75 | > 75 | > 75 | > 75 | > 75 | 100 |  |
